Data on six molecules can be found in patent publication US5210089A, “D-rhamnono-1,5-lactone” (Monsanto Company, priority 1992, dated 1993).

In assay [1] the target is T1, Lysosomal α-fucosidase (Homo sapiens, UniProt P04066).
T1 construct: human liver extracts; from tissue; host or cells: human liver extracts
T1 sequence (P04066 32-466): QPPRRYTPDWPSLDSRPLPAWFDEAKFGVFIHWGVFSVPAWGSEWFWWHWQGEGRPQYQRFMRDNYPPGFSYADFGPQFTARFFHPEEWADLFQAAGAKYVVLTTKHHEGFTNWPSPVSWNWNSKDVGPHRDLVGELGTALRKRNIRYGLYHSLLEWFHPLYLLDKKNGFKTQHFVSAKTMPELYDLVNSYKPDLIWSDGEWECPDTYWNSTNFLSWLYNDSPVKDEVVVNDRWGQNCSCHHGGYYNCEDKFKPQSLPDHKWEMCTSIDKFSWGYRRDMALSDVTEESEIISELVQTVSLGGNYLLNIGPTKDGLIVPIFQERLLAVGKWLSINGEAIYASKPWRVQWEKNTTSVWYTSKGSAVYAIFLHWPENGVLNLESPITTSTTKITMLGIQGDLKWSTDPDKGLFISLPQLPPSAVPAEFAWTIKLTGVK
Nature of the assay: Human liver glycosidase assay, lysosomal α-fucosidase. The assay is classed as biochemical. To be noted: read-out: Inhibition (%) at 1 mM, lysosomal α-fucosidase. As for the experimental part:
(§1) Melting points were recorded on a Kofler hot block. Proton nuclear magnetic resonance (δH) spectra were recorded on Varian Gemini 200 (at 200 MHz), Bruker WH 300 (300 MHz), or Bruker AM 500 (500 MHz) spectrometers. Carbon nuclear magnetic resonance (δC) spectra were recorded on a Varian Gemini 200 (50 MHz) or a Bruker 250 (62.9 MHz) spectrometer. Multiplicities were assigned using DEPT sequence on the Gemini and by off resonance decoupling on the Bruker. Spectra run in D2 O were referenced to methanol as an internal standard. All chemical shifts are quoted on the δ-scale. Infrared spectra were recorded on a Perkin-Elmer 297, or on a Perkin-Elmer 781 spectrophotometer. Mass spectra were recorded on VG Micromass 30F, ZAB lF, Masslab 20-250 or Trio-1 GCMS (DB-5 column) spectrometers using desorption chemical ionization (NH3 DCI), electron impact (EI), chemical ionization (NH3 CI) and fast atom bombardment (FAB) techniques, as stated. […] Concentrations were given in g/100 ml. Hydrogenations were run under an atmosphere of hydrogen gas maintained by inflated balloon. Microanalyses were performed by the microanalysis service of the DysonPerrins laboratory, Oxford UK. Thin layer chromatography (t.l.c.) was carried out on aluminum sheets coated with 60F254 silica. Plates were developed using either 5% v/v concentrated sulphuric acid in methanol, 0.2% w/v cerium (IV) sulphate and 5% ammonium molybdate in 2M sulphuric acid and 0.5% ninhydrin in methanol. Flash chromatography was carried out using Sorbsil C60 40/60 silica. Ion-exchange chromatography was performed using Dowex 50W-X8 (H) and Sigma CG 400 (Cl) resins. The resins were washed with 2M hydrochloric acid and 2M sodium hydroxide solution, respectively, and subsequently with distilled water, prior to use. Solvents and commercially available reagents were dried and purified before use according to standard procedures; dichloromethane was refluxed over and distilled from calcium hydride, N,N-dimethylformamide was distilled under reduced pressure from calcium hydride, methanol was distilled from magnesium methoxide, pyridine was distilled from, and stored over, potassium hydroxide and tetrahydrofuran was distilled from a purple solution of sodium benzophenone ketyl immediately before use. Hexane was distilled at 68° C. before use to remove involatile fractions. 2,3-O-Isopropylidene-L-gulono-1,4-lactone (9) [H. Ogura et al., J. Oro. Chem. 37, 72 (1972); G. W. J. Fleet Tetrahedron 45, 319 (1989)]and 2,3-O-isopropylidene-D-gulono-1,4-lactone (15) [L. M. Lerner et al., J. Org. Chem. 33, 1780 (1968)]were prepared from D- and L-Chem. gulonolactones [purchased from the Sigma Chemical Company] as reported previously. See, e.g., Fleet, U.S. Pat. No. 4,861,892. Human liver glycosidases were assayed in the absence and presence [1 mM] of each of the compounds using the appropriate buffered 4-methylumbellifeeryl-glycosides as substrates, as described previously. [B. Winchest et al., Biochem. J. 265, 277 (1990)]. Naringinase was assayed using pnitrophenyl α-L-rhamnoside (1.75 mM) as substrates, according to Romero [C. Romero et al., Anal. Biochem. 149, 566 (1985)].
(§2) The enzymes included human liver glycosidases and naringinase. The latter enzyme is a readily available endo-L-rhamnosidase described by Romero et al., Anal. Biochem. 149, 566 (1985).

The subject of assay [2] is α-arabinosidase. Nature of the assay: Human liver glycosidase assay, α-arabinosidase. It counts as biochemical. To be noted: 1 mM compound. The protocol: (§3) Melting points were recorded on a Kofler hot block. Proton nuclear magnetic resonance (δH) spectra were recorded on Varian Gemini 200 (at 200 MHz), Bruker WH 300 (300 MHz), or Bruker AM 500 (500 MHz) spectrometers. Carbon nuclear magnetic resonance (δC) spectra were recorded on a Varian Gemini 200 (50 MHz) or a Bruker 250 (62.9 MHz) spectrometer. Multiplicities were assigned using DEPT sequence on the Gemini and by off resonance decoupling on the Bruker. Spectra run in D2 O were referenced to methanol as an internal standard. All chemical shifts are quoted on the δ-scale. Infrared spectra were recorded on a Perkin-Elmer 297, or on a Perkin-Elmer 781 spectrophotometer. Mass spectra were recorded on VG Micromass 30F, ZAB lF, Masslab 20-250 or Trio-1 GCMS (DB-5 column) spectrometers using desorption chemical ionization (NH3 DCI), electron impact (EI), chemical ionization (NH3 CI) and fast atom bombardment (FAB) techniques, as stated. […] Concentrations were given in g/100 ml. Hydrogenations were run under an atmosphere of hydrogen gas maintained by inflated balloon. Microanalyses were performed by the microanalysis service of the DysonPerrins laboratory, Oxford UK. […]
as §2

The subject of assay [3] is glycoprotein processing mannosidase I. To be noted: literature; cited from earlier work.
Assay [4] deals with mannosidases. To be noted: literature; cited from earlier work.
Assay [5] has as its target T2, Lysosomal α-mannosidase (Homo sapiens, UniProt O00754).
T2 sequence (O00754 50-1011): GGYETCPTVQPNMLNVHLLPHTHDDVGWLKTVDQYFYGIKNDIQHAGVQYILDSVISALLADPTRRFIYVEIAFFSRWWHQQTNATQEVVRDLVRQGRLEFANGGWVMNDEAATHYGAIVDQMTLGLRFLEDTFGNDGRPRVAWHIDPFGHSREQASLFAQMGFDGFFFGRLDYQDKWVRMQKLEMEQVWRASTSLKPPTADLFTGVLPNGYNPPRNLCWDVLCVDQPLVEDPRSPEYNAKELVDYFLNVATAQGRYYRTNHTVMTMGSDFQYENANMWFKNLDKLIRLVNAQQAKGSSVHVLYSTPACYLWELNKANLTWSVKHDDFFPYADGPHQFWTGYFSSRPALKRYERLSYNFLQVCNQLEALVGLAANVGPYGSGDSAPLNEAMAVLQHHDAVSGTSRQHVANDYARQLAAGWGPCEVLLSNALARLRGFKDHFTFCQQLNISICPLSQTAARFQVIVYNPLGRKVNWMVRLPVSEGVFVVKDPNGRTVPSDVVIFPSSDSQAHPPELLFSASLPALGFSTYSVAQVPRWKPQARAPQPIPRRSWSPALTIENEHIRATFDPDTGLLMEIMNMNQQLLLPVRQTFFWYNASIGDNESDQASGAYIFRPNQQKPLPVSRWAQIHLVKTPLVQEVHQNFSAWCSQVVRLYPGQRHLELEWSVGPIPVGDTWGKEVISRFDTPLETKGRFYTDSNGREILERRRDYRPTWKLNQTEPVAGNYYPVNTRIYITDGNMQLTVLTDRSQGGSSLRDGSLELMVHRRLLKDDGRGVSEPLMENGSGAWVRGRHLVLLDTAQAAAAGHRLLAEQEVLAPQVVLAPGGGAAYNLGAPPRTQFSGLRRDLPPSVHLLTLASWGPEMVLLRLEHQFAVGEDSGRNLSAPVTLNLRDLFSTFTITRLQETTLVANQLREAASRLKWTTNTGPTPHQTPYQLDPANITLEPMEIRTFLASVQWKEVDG
Nature of the assay: Human liver glycosidase assay, lysosomal α-mannosidase. The assay is classed as biochemical. More on the design: human liver extracts; from tissue; host or cells: human liver extracts. To be noted: for inhibition at 1000 µM: 1 mM compound, 4-methylumbelliferyl-glycoside substrate. The protocol: as §1, §2

Assay [6] relates to N-acetyl-β-D-hexosaminidase. Nature of the assay: Human liver glycosidase assay, N-acetyl-β-D-hexosaminidase. The assay is classed as biochemical. To be noted: 1 mM compound. As for the experimental part:
as §3, §2

The target in assay [7] is T3, bovine α-L-fucosidase (Bos taurus, UniProt Q2KIM0).
T3 sequence (Q2KIM0 23-468): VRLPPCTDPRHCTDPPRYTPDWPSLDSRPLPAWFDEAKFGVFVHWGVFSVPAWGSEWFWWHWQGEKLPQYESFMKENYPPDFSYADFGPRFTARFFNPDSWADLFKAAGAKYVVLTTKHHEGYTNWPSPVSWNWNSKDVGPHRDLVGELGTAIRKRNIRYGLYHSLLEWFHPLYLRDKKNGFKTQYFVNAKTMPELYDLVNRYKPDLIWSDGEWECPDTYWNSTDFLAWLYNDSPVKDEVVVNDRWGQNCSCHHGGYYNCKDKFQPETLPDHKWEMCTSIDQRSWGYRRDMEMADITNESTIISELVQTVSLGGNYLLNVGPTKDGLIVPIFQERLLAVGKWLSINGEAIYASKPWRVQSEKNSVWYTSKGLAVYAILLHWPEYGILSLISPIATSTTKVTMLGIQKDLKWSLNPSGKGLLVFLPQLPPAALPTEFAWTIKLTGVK
To be noted: literature; cited from earlier work.

Assay [8] has as its system α-rhamnosidase (naringinase). Nature of the assay: Naringinase assay with p-nitrophenyl α-L-rhamnoside. It counts as biochemical. To be noted: 1 mM compound; p-nitrophenyl α-L-rhamnoside 1.75 mM. The protocol: as §1, §2
Assay [9] has as its system human liver mannosidases. To be noted: literature; cited from earlier work.
The target of assay [10] is T4, β-mannosidase (Homo sapiens, UniProt O00462).
T4 sequence (O00462 18-879): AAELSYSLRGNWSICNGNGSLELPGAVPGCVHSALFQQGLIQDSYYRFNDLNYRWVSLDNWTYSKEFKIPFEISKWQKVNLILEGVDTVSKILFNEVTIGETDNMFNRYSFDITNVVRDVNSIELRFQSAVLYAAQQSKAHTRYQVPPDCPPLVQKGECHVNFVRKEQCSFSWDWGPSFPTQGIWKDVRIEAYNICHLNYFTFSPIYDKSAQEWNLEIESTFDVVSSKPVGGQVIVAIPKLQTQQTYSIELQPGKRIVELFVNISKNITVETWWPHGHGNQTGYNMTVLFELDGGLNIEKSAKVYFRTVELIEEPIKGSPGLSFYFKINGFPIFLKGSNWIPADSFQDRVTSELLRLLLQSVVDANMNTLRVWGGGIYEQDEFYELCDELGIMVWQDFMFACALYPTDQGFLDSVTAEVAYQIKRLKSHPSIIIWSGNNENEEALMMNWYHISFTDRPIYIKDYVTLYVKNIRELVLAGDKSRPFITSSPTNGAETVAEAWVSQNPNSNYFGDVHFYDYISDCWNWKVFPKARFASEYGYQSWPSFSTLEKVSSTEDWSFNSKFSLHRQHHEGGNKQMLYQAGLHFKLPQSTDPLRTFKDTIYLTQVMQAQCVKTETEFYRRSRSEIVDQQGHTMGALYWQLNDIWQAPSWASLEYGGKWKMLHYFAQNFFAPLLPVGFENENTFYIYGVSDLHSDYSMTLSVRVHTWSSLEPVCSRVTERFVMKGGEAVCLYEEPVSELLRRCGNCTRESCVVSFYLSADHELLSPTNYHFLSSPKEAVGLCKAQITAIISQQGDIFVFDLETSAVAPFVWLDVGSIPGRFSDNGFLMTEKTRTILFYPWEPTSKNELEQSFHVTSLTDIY
To be noted: literature; cited from earlier work.

[11] abbreviates: human liver, read-out: Ki, lysosomal α-mannosidase.

Structures can show the parent of a compound that is named as a salt. Where two headings read alike, the source gives them in different places.

For the molecule `OC[C@@H](O)[C@H]1NC[C@@H](O)[C@H]1O` [1,4-dideoxy-1,4-iminomannitol (3), 1,4-dideoxy-1,4-iminomannitol], the inhibition at 1000 µM was 24% in assay [1] (1 mM compound, human liver) and 89% in [5] (human liver). Moreover, in assay [2], the “Inhibition (%) at 1 mM, α-arabinosidase” value was 66%. In [3], the “Inhibition of glycoprotein processing mannosidase (in words)” value is recorded as “strong”. Also, the “Inhibition of many mannosidases (in words)” value in [4] is “strong”. The Ki in assay [5] (setting [11]) came out at 13 µM.

Take `OC[C@H]1NC[C@@H](O)[C@@H](O)[C@@H]1O` [DMJ (1), deoxymannojirimycin]: in assay [1], the inhibition at 1000 µM came to 92%. Besides, the “Inhibition (%) at 1 mM, N-acetyl-β-D-hexosaminidase” value in assay [6] was found to be 54%. The “Inhibition of glycoprotein processing mannosidase (in words)” value in [3] is “potent inhibitor”. Further, the “Inhibition of bovine α-L-fucosidase (in words)” value in assay [7] is on record as “potent inhibitor”. In assay [5], this molecule gave a Ki of 750 µM.

In the case of `C[C@@H]1NC[C@H](O)[C@H](O)[C@H]1O` [L-Rhamnojirimycin (7), 1,5-Imino-1,5,6-trieoxy-L-mannitoI hydrochIoride], the “Inhibition (%) at 1 mM, α-rhamnosidase (naringinase)” value in assay [8] came out at 0%. Besides, the inhibition at 1000 µM in [5] (human liver) was found to be 19%.

For `C[C@@H](O)[C@H]1NC[C@@H](O)[C@H]1O` [1,4-dideoxy-1,4-imino-6-deoxy-mannitol], the inhibition at 1000 µM in [1] (1 mM compound, human liver) came to 21%; in [5] (human liver), 100%. In addition, the “Inhibition (%) at 1 mM, α-arabinosidase” value in assay [2] is 91%. Also, the “Inhibition of human liver mannosidases (in words)” value in [9] is given as “excellent inhibitor”. For the same molecule, in assay [5] (setting [11]), the Ki is 1.3 µM.

Take `O[C@H]1[C@H]2[C@H](O)CCCN2C[C@H]1O` [swainsonine]: the “Inhibition of β-mannosidase (in words)” value in assay [10] was “fail to inhibit”.

For `C[C@H]1NC[C@@H](O)[C@@H](O)[C@@H]1O` [D-Rhamnojirimycin (5), 1,5-amino-1,5,6-trideoxy-D-mannitol hydrochloride], the “Inhibition (%) at 1 mM, α-rhamnosidase (naringinase)” value in [8] was 10%. In [5] (human liver), this molecule registered an inhibition at 1000 µM of 55%. Moreover, in assay [5] (human liver, read-out: I50, lysosomal α-mannosidase), the IC50 worked out at 1000 µM.
